From patent US6028188A (priority 1994, dated 2000)
[mp] = methylphosphonate linkage

Columns and labels:
[1] = tested on: complementary RNA targets; assay: Tm with complementary RNA target, oligomers 5'-TAG-CTT-CCT-TAG-CTC-CTG-3'; type: binding; details: Table XI
Description: (§1) Annealing reaction mixtures contained equimolar amounts of Oligomer and RNA target Oligomer (2.4 μM total strand concentration), 20 mM potassium phosphate (pH 7.2), 100 mM sodium chloride, 0.1 mM EDTA and 0.03% potassium sarkosylate. The reaction mixtures were heated to 80° C. and then slowly cooled to 4° C. over about 4 to 6 hours. The annealed samples were then transferred to 1 cm quartz cuvettes and Tm was monitored by absorbance at 260 nm as a function of temperature using a Varian Cary Model 2E Spectrophotometer containing a temperature controlled 6×6 sample holder which interfaced with an IBM compatible PC computer. The temperature was varied from 5° C. to 80° C. at a ramp rate of 1° C./minute. The Tm for each melt profile is determined as the point corresponding to the maximum of the first derivative of the curve corresponding to absorbance versus temperature.
The oligomers were synthesized according to methods set forth in the Examples herein and had mixed oligonucleoside sequences complementary to biologically relevant mRNA targets. Tm determinations were done according to the methods described in the proceeding Examples.

splice acceptor site = assay: Tm of splice acceptor site oligomers; type: binding; details: Table XIII
Description: as §1
The results are given as percent gene expression relative to no-oligomer treatment of cells. The concentration is given above the data columns in micromolar. CAT levels were determined in triplicate as previously given and the experiment has been repeated multiple times. The Tm of the oligomers was determined as previously given.

pGL2 (luciferase) = type: cell-based; details: for percent gene expression relative to no-oligomer treatment, pGL2 (splicing, no match): 1.0 μM; for inhibition of luciferase expression (in words): pGL2
Description: All cultures were maintained at 37° C.
This assay was performed generally as follows according to standard procedures. 20 μl of lysate was combined with 100 μl of luciferase assay reagent (Promega) and counted in a scintillation counter (Packard) within 20 seconds (as recommended by Promega).
In order to determine that the effect against pG1035 was not due to non-specific interference of splicing in general, pGL2 was used as an additional control. pGL2 encodes the luciferase gene and contains an intron that is unrelated to the intron in pG1035.

pG1036 (wild-type CAT) = assay: CAT expression, non-splicing reporter pG1036, in COS-7 cells; details: for inhibition of expression of non-splicing CAT gene (in words): pG1036
pG1035 (SplicerCAT) = assay: Inhibition of CAT expression, splicing reporter pG1035, in COS-7 cells; details: for reduction of CAT expression: pG1035, 1.0 micromolar

Substance | Tm(° C. RNA) [1] [°C] | Tm (splice acceptor site) [°C] | percent gene expression relative to no-oligomer treatment, pGL2 (splicing, no match) (pGL2 (luciferase)) [%] | inhibition of luciferase expression (in words) (pGL2 (luciferase)) | percent gene expression relative to no-oligomer treatment, pG1036 (non-splicing) (pG1036 (wild-type CAT); 0.1 μM) [%] | percent gene expression relative to no-oligomer treatment, pG1036 (non-splicing) (pG1036 (wild-type CAT); 0.3 μM) [%] | percent gene expression relative to no-oligomer treatment, pG1036 (non-splicing) (pG1036 (wild-type CAT); 1.0 μM) [%] | inhibition of expression of non-splicing CAT gene (in words) (pG1036 (wild-type CAT)) | percent gene expression relative to no-oligomer treatment, pG1035 (splicing) (pG1035 (SplicerCAT); 0.1 μM) [%] | percent gene expression relative to no-oligomer treatment, pG1035 (splicing) (pG1035 (SplicerCAT); 0.3 μM) [%] | percent gene expression relative to no-oligomer treatment, pG1035 (splicing) (pG1035 (SplicerCAT); head printed 0.1) [%] | reduction of CAT expression (pG1035 (SplicerCAT)) [%]
1630-1: 5'-TAG-CTT-CCT-TAG-CTC-CTG-3' [SEQ. ID. NO. 5], Racemic MP (DNA TAGCTTCCTTAGCTCCTG; all [mp], sugars by position and methylation of C not given here) [Oligomer 1630-1] | 39.0 | – | – | – | – | – | – | – | – | – | – | –
3373-1A: 24 mer, 2'-O-Me (MP(Rp)/DE), 5'-ccc tga gag aga gag aga ggt tcg [SEQ. ID. NO. 12] (CCCTGAGAGAGAGAGAGAGGTTCG; all 2'-O-methyl, backbone, methylation of C and T or U not given here; Rp methylphosphonate and diester linkages) [Oligomer 3373-1A] | – | 84 | 127 | not inhibited in any way | 91 | 89 | 105 | Neither oligomer inhibited the expression of the non-splicing CAT gene, pG1036, significantly | 81 | 48 | 26 | 74
3373-1B: 18 mer 2'-O-Me (MP(Rp)/DE), 5'-gag aga gag aga ggt tcg-3' [SEQ. ID. NO. 13] (GAGAGAGAGAGAGGTTCG; all 2'-O-methyl, backbone, methylation of C and T or U not given here; Rp methylphosphonate and diester linkages) [Oligomer 3373-1B] | – | 80 | 127 | not inhibited in any way | 95 | 85 | 81 | Neither oligomer inhibited the expression of the non-splicing CAT gene, pG1036, significantly | 59 | 31 | 10 | 90
